The results in this text go back to patent publication US20240343681A1, “MOLECULES HAVING PESTICIDAL UTILITY AND INTERMEDIATES AND PROCESSES RELATED THERETO” (priority 2021, published 2024).

This test has as its system Beet Armyworm (Spodoptera exigua, LAPHEG) second instar larva. In words: Bioassay on beet armyworm (BAW), 128-well diet tray assay. The test is classed as in vivo. Particulars: 50 μg/cm^2 on artificial diet, 25° C., five days. The protocol: Example A: Bioassays on Beet Armyworm (Spodoptera exigua, LAPHEG) (“BAW”) and Cabbage Looper (Trichoplusia ni, TRIPNI) (“CL”)
Bioassays on BAW were conducted using a 128-well diet tray assay. One second instar BAW larva was placed in each well (8 wells total) of the diet tray that had been previously filled with 1 mL of artificial diet to which 50 μg/cm^2 of the test molecule (dissolved in 50 μL of 90:10 acetone-water mixture) had been applied (to each of eight wells) and then allowed to dry. Trays were covered with a clear self-adhesive cover, vented to allow gas exchange, and held at 25° C., 14:10 light-dark for five days. Percent mortality was recorded for the larvae in each well; activity in the eight wells was then averaged.

In the case of `O=C(Nc1cc(NC(=O)[C@@H]2[C@@H](c3ccc(F)c(C(F)(F)F)c3)C2(Cl)Cl)ccc1Cl)c1cnc(F)c(F)c1` [F110, N-(2-Chloro-5-((1S,3S)-2,2-dichloro-3-(4-fluoro-3-(trifluoromethyl)phenyl)cyclopropane-1-carboxamido)phenyl)-5,6-difluoronicotinamide], the “activity against BAW (percent mortality, averaged over eight wells)” value is reported as “exhibited activity”.

On to `O=C(Nc1cc(NC(=O)[C@H]2[C@H](c3cc(Cl)cc(Cl)c3)C2(Cl)Cl)ccc1Cl)c1ccncn1` (racemic) [F32, trans-rac-N-(2-Chloro-5-(2,2-dichloro-3-(3,5-dichlorophenyl)cyclopropane-1-carboxamido)phenyl)pyrimidine-4-carboxamide], for which the “activity against BAW (percent mortality, averaged over eight wells)” value was “exhibited activity”.

Turning to `CC(CC(=O)N(C)c1cc(NC(=O)C2C(c3cc(Cl)cc(Cl)c3)C2(Cl)Cl)ccc1Cl)C(F)(F)F` (racemic) [F92, trans-rac-2,2-dichloro-N-(4-chloro-3-(4,4,4-trifluoro-N,3-dimethylbutanamido)phenyl)-3-(3,5-dichlorophenyl)cyclopropane-1-carboxamide], the “activity against BAW (percent mortality, averaged over eight wells)” value is “exhibited activity”.

Take `COCC(=O)Nc1c(F)ccc(C(=O)Nc2cc(NC(=O)[C@H]3[C@H](c4ccc(F)c(C(F)(F)F)c4)C3(Cl)Cl)ccc2Cl)c1F` [F105, N-(2-chloro-5-((1R,3R)-2,2-dichloro-3-(4-fluoro-3-(trifluoromethyl)phenyl)cyclopropane-1-carboxamido)phenyl)-2,4-difluoro-3-(2-methoxyacetamido)benzamide]: the “activity against BAW (percent mortality, averaged over eight wells)” value is “exhibited activity”.

In the case of `Cc1cc([N+](=O)[O-])ccc1C(=O)Nc1cc(NC(=O)[C@H]2[C@H](c3cc(Cl)cc(Cl)c3)C2(Cl)Cl)ccc1Cl` (racemic) [F90, trans-rac-N-(2-Chloro-5-(2,2-dichloro-3-(3,5-dichlorophenyl)cyclopropane-1-carboxamido)phenyl)-2-methyl-4-nitrobenzamide], the “activity against BAW (percent mortality, averaged over eight wells)” value was “exhibited activity”.

Turning to `O=C(Nc1cc(NC(=O)[C@H]2[C@H](c3cc(Cl)cc(Cl)c3)C2(Cl)Cl)ccc1Cl)c1cccc([N+](=O)[O-])c1` (racemic) [F88, trans-rac-N-(2-chloro-5-(2,2-dichloro-3-(3,5-dichlorophenyl)cyclopropane-1-carboxamido)phenyl)-3-nitrobenzamide], the “activity against BAW (percent mortality, averaged over eight wells)” value is “exhibited activity”.

As to `CC(C(=O)Nc1cc(NC(=O)C2C(c3cc(Cl)cc(Cl)c3)C2(Cl)Cl)ccc1Cl)C(F)(F)F` (racemic) [F6, trans-rac-2,2-Dichloro-N-(4-chloro-3-(3,3,3-trifluoro-2-methylpropanamido)phenyl)-3-(3,5-dichlorophenyl)cyclopropane-1-carboxamide], the “activity against BAW (percent mortality, averaged over eight wells)” value is given as “exhibited activity”.

Take `O=C(Nc1cc(NC(=O)[C@H]2[C@H](c3ccc(F)c(C(F)(F)F)c3)C2(Cl)Cl)ccc1Cl)c1ccc(F)c(NC(=O)C(F)F)c1F` [F104, N-(2-chloro-5-((1R,3R)-2,2-dichloro-3-(4-fluoro-3-(trifluoromethyl)phenyl)cyclopropane-1-carboxamido)phenyl)-3-(2,2-difluoroacetamido)-2,4-difluorobenzamide]: the “activity against BAW (percent mortality, averaged over eight wells)” value was “exhibited activity”.

For `O=C(Nc1cc(NC(=O)[C@H]2[C@H](c3cc(Cl)cc(Cl)c3)C2(Cl)Cl)ccc1Cl)c1ccc(F)cc1F` (racemic) [F24, trans-rac-N-(2-Chloro-5-(2,2-dichloro-3-(3,5-dichlorophenyl)cyclopropane-1-carboxamido)phenyl)-2,4-difluorobenzamide], the “activity against BAW (percent mortality, averaged over eight wells)” value was “exhibited activity”.

For `Cc1ccccc1C(=O)Nc1cc(NC(=O)[C@H]2[C@H](c3cc(Cl)cc(Cl)c3)C2(Cl)Cl)ccc1Cl` (racemic) [F73, trans-rac-N-(2-Chloro-5-(2,2-dichloro-3-(3,5-dichlorophenyl)cyclopropane-1-carboxamido)phenyl)-2-methylbenzamide], the “activity against BAW (percent mortality, averaged over eight wells)” value is reported as “exhibited activity”.

Regarding `N#CC1(C(=O)Nc2cc(NC(=O)[C@H]3[C@H](c4cc(Cl)cc(Cl)c4)C3(Cl)Cl)ccc2Cl)CC1` (racemic) [F43, trans-rac-2,2-Dichloro-N-(4-chloro-3-(1-cyanocyclopropane-1-carboxamido)phenyl)-3-(3,5-dichlorophenyl)cyclopropane-1-carboxamide], the “activity against BAW (percent mortality, averaged over eight wells)” value is “exhibited activity”.

In the case of `Cc1cc(C#N)ccc1C(=O)Nc1cc(NC(=O)[C@H]2[C@H](c3ccc(F)c(Br)c3)C2(Cl)Cl)ccc1Cl` [F98, N-(5-((1R,3R)-3-(3-Bromo-4-fluorophenyl)-2,2-dichlorocyclopropane-1-carboxamido)-2-chlorophenyl)-4-cyano-2-methylbenzamide], the “activity against BAW (percent mortality, averaged over eight wells)” value was “exhibited activity”.

As for `O=C(Cc1c(F)cc(F)cc1F)Nc1cc(NC(=O)[C@H]2[C@H](c3cc(Cl)cc(Cl)c3)C2(Cl)Cl)ccc1Cl` (racemic) [F49, trans-rac-2,2-Dichloro-N-(4-chloro-3-(2-(2,4,6-trifluorophenyl)acetamido)phenyl)-3-(3,5-dichlorophenyl)cyclopropane-1-carboxamide], the “activity against BAW (percent mortality, averaged over eight wells)” value was “exhibited activity”.

With `O=C(Nc1cc(NC(=O)[C@H]2[C@H](c3cc(Cl)cc(Cl)c3)C2(Cl)Cl)ccc1Cl)c1cccc(F)c1` (racemic) [F66, trans-rac-N-(2-Chloro-5-(2,2-dichloro-3-(3,5-dichlorophenyl)cyclopropane-1-carboxamido)phenyl)-3-fluorobenzamide], the “activity against BAW (percent mortality, averaged over eight wells)” value is on record as “exhibited activity”.

Take `C=CCC(=O)Nc1cc(NC(=O)[C@H]2[C@H](c3cc(Cl)cc(Cl)c3)C2(Cl)Cl)ccc1Cl` (racemic) [F47, trans-rac-N-(3-But-3-enamido-4-chlorophenyl)-2,2-dichloro-3-(3,5-dichlorophenyl)cyclopropane-1-carboxamide]: the “activity against BAW (percent mortality, averaged over eight wells)” value was “exhibited activity”.

`O=C(Nc1cc(NC(=O)[C@H]2[C@H](c3cc(Cl)cc(Cl)c3)C2(Cl)Cl)ccc1Cl)c1ccc(F)cn1` (racemic) [F30, trans-rac-N-(2-Chloro-5-(2,2-dichloro-3-(3,5-dichlorophenyl)cyclopropane-1-carboxamido)phenyl)-5-fluoropicolinamide]: the “activity against BAW (percent mortality, averaged over eight wells)” value is “exhibited activity”.

`O=C(CC(F)(F)F)Nc1cc(NC(=O)[C@H]2[C@H](c3cc(Cl)cc(Cl)c3)C2(Cl)Cl)ccc1Cl` (racemic) [F5, trans-rac-2,2-Dichloro-N-(4-chloro-3-(3,3,3-trifluoropropanamido)phenyl)-3-(3,5-dichlorophenyl)cyclopropane-1-carboxamide]: the “activity against BAW (percent mortality, averaged over eight wells)” value is given as “exhibited activity”.

For the molecule `O=C(CSC(F)(F)F)Nc1ccc(C(=O)Nc2cc(NC(=O)[C@H]3[C@H](c4ccc(F)c(C(F)(F)F)c4)C3(Cl)Cl)ccc2Cl)c(F)c1` (racemic) [F121, trans-rac-N-(2-Chloro-5-(2,2-dichloro-3-(4-fluoro-3-(trifluoromethyl)phenyl)cyclopropane-1-carboxamido)phenyl)-2-fluoro-4-(2-((trifluoromethyl)thio)acetamido)benzamide], the “activity against BAW (percent mortality, averaged over eight wells)” value is “exhibited activity”.

Consider `CC(=O)NCC(=O)Nc1cc(NC(=O)[C@H]2[C@H](c3cc(Cl)cc(Cl)c3)C2(Cl)Cl)ccc1Cl` (racemic) [F51, trans-rac-N-(3-(2-Acetamidoacetamido)-4-chlorophenyl)-2,2-dichloro-3-(3,5-dichlorophenyl)cyclopropane-1-carboxamide], for which the “activity against BAW (percent mortality, averaged over eight wells)” value is given as “exhibited activity”.

With `O=C(Nc1ccc(Cl)c(NC(=O)C(F)(F)C(F)F)c1)[C@H]1[C@H](c2cc(Cl)cc(Cl)c2)C1(Cl)Cl` (racemic) [F55, trans-rac-2,2-Dichloro-N-(4-chloro-3-(2,2,3,3-tetrafluoropropanamido)phenyl)-3-(3,5-dichlorophenyl)cyclopropane-1-carboxamide], the “activity against BAW (percent mortality, averaged over eight wells)” value is given as “exhibited activity”.

As to `CC(CC(=O)Nc1cc(NC(=O)C2C(c3cc(Cl)cc(Cl)c3)C2(Cl)Cl)ccc1Cl)C(F)(F)F` (racemic) [F9, trans-rac-2,2-Dichloro-N-(4-chloro-3-(4,4,4-trifluoro-3-methylbutanamido)phenyl)-3-(3,5-dichlorophenyl)cyclopropane-1-carboxamide], the “activity against BAW (percent mortality, averaged over eight wells)” value is given as “exhibited activity”.

Regarding `CN(C(=O)c1cc(F)cc(F)c1)c1cc(NC(=O)[C@H]2[C@H](c3cc(Cl)cc(Cl)c3)C2(Cl)Cl)ccc1Cl` (racemic) [F94, trans-rac-N-(2-Chloro-5-(2,2-dichloro-3-(3,5-dichlorophenyl)cyclopropane-1-carboxamido)phenyl)-3,5-difluoro-N-methylbenzamide], the “activity against BAW (percent mortality, averaged over eight wells)” value is recorded as “exhibited activity”.

Turning to `CCOC(C)C(=O)Nc1c(F)ccc(NC(=O)[C@H]2[C@H](c3cc(Cl)c(Cl)c(Cl)c3)C2(Cl)Cl)c1F` (stereo partly drawn) [F12, (1R,3R)-2,2-Dichloro-N-(3-(2-ethoxypropanamido)-2,4-difluorophenyl)-3-(3,4,5-trichlorophenyl)cyclopropane-1-carboxamide], the “activity against BAW (percent mortality, averaged over eight wells)” value is reported as “exhibited activity”.

With `O=C(Nc1cc(NC(=O)[C@H]2[C@H](c3cc(Cl)cc(Cl)c3)C2(Cl)Cl)ccc1Cl)c1ccc([N+](=O)[O-])cc1` (racemic) [F89, trans-rac-N-(2-Chloro-5-(2,2-dichloro-3-(3,5-dichlorophenyl)cyclopropane-1-carboxamido)phenyl)-4-nitrobenzamide], the “activity against BAW (percent mortality, averaged over eight wells)” value is “exhibited activity”.
